For 17 compounds, TGI results are on record in PubChem BioAssay (NCI).

Structures are written as SMILES.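 Interpolation was linear, between the two tested concentrations surrounding the appropriate level; five concentrations were tested over 48 hours in 96-well plates. TGI: concentration producing complete growth inhibition.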 *1 amine or outer side, *2 acyl side, *3 side chain or, on linkers, in order; H or OH if unused. Where a SMILES comes first, the peptide text is derived from it. [ ]: non-standard residue; d: D form. X32 = C[C@H](N[*:1])C(=O)C(C)(C)C(=O)[*:2]; Hmpa(2S,3S) = CC[C@H](C)[C@H](O)C(=O)O; NMeY = CN[C@@H](Cc1ccc(O)cc1)C(=O)O; NMeL = CN[C@@H](CC(C)C)C(=O)O; NMeV = CN[C@H](C(=O)O)C(C)C; βAla = NCCC(=O)O

Among the test systems are COLO 205 colon; DLD-1 colon; DMS 114 small cell lung; HOP-18 NSCLC; K-562 leukemia; KM20L2 colon; OVCAR-5 ovarian; SW-620 colon; U251 CNS; UO-31 renal; TK-10 renal; MDA-MB-435.
Holding throughout (experiment): NCI tumour cell line growth inhibition, 48 h

As for `N/C(=N\N=C\c1ccc2c(c1)OCCO2)NO`, the TGI was 38.5 µM in the test on COLO 205 colon; over 100 µM with DLD-1 colon; over 77.6 µM with DMS 114 small cell lung; over 100 µM in the test with HOP-18 NSCLC; over 72.4 µM in the test with K-562 leukemia; over 52 µM in the test on KM20L2 colon. For the same compound, the TGI is over 40.8 µM with OVCAR-5 ovarian, over 100 µM with SW-620 colon, over 100 µM in the test on U251 CNS and over 53 µM with UO-31 renal.
Take `COc1ccc(-c2cc3[nH]nc(N)c3c(=O)o2)cc1`: the TGI with COLO 205 colon, with DLD-1 colon, with DMS 114 small cell lung, in the test with HOP-18 NSCLC, with K-562 leukemia and in the test with KM20L2 colon was over 100 µM in each case. Moreover, the TGI with OVCAR-5 ovarian, with SW-620 colon, in the test on TK-10 renal, with U251 CNS and in the test on UO-31 renal was over 100 µM each time.
Consider `CCCCCCCCCCCCCCCCCCN(C)CC(COP(=O)([O-])OCC[N+](C)(C)C)OC` (stereo not given), for which the TGI was 8.47 µM in the test on COLO 205 colon; 17.3 µM in the test on DLD-1 colon; 20.5 µM in the test on DMS 114 small cell lung; 32.5 µM with HOP-18 NSCLC; 54.6 µM with K-562 leukemia; 4.16 µM in the test with KM20L2 colon. Moreover, the TGI with MDA-MB-435 came out at 97 µM; with OVCAR-5 ovarian it was 11.1 µM; in the test with SW-620 colon, 47 µM; in the test with TK-10 renal, 8.46 µM; in the test with U251 CNS, 10.1 µM; with UO-31 renal, 48.8 µM.
For the compound `CC(=O)c1cc2ccccc2oc1=O`, the TGI with COLO 205 colon, in the test on K-562 leukemia, in the test with MDA-MB-435, in the test on OVCAR-5 ovarian, in the test with SW-620 colon and in the test on TK-10 renal was over 100 µM each time. In addition, the TGI with U251 CNS and with UO-31 renal was over 100 µM in each case.
`O=c1/c(=C/c2ccc(-c3ccc(Cl)cc3Cl)o2)sc2n1[C@@H](c1ccc(Cl)cc1)C=C(c1cc(F)c(Cl)cc1Cl)N=2`: the TGI with COLO 205 colon, in the test with K-562 leukemia, in the test on MDA-MB-435, in the test on OVCAR-5 ovarian, in the test on SW-620 colon and in the test on TK-10 renal was over 100 µM each time. Further, the TGI with U251 CNS and in the test on UO-31 renal was over 100 µM in each case.
As to `CC[C@H](C)[C@@H]1OC(=O)CCNC(=O)[C@@H](C)NC(=O)C(C)(C)C(=O)[C@H](C)NC(=O)[C@H](Cc2ccc(OC)cc2)N(C)C(=O)[C@H](C(C)C)N(C)C(=O)CNC(=O)[C@H](CC(C)C)N(C)C(=O)CNC1=O` (cyclo(G[NMeL]G[NMeV][NMeY](Me)[X32][dA][βAla][Hmpa(2S,3S)])), the TGI in the test with COLO 205 colon was 0.0545 µM; in the test with K-562 leukemia it was over 24.5 µM; with MDA-MB-435 it was over 42.7 µM; with OVCAR-5 ovarian it was over 31.2 µM; in the test with SW-620 colon it was over 50 µM; in the test with TK-10 renal, 8 µM. In addition, the TGI in the test on U251 CNS was found to be 2.62 µM; in the test on UO-31 renal, 16 µM.
Regarding `CN(C)c1nc(Cl)c2c(-c3ccccc3)c(-c3ccccc3)oc2n1`, the TGI with COLO 205 colon, in the test on K-562 leukemia, with MDA-MB-435, in the test with OVCAR-5 ovarian, in the test on SW-620 colon and in the test on TK-10 renal was over 100 µM throughout. Moreover, the TGI with U251 CNS and in the test on UO-31 renal was over 100 µM in each case.
In the case of `O=C(Nc1nc(C23CC4CC(CC(C4)C2)C3)cs1)c1cc2ccccc2oc1=O`, the TGI with COLO 205 colon, in the test with K-562 leukemia, in the test on MDA-MB-435, in the test with OVCAR-5 ovarian, with SW-620 colon and in the test on TK-10 renal was over 100 µM in each case. Also, the TGI with U251 CNS and in the test on UO-31 renal was over 100 µM each time.
Consider `CCCCn1c2c(n(CCCC)c1=S)-c1c(n(CCCC)c(=S)n1CCCC)SSc1c(n(CCCC)c(=S)n1CCCC)-c1c(n(CCCC)c(=S)n1CCCC)SSc1c(n(CCCC)c(=S)n1CCCC)-c1c(n(CCCC)c(=S)n1CCCC)SS2`, for which the TGI in the test on COLO 205 colon is 14.7 µM; in the test on K-562 leukemia, over 50 µM; in the test with MDA-MB-435, over 42.1 µM; in the test with OVCAR-5 ovarian it was 25.4 µM; in the test on SW-620 colon it was over 14.8 µM; in the test with TK-10 renal, over 50 µM. Moreover, the TGI with U251 CNS was over 50 µM; in the test with UO-31 renal it was 16.5 µM.
As for `COc1ccccc1C(=O)c1c(NCc2ccccc2)c(=O)c1=O`, the TGI was 98.7 µM with COLO 205 colon; over 100 µM with K-562 leukemia; over 100 µM with MDA-MB-435; over 100 µM in the test with OVCAR-5 ovarian; 37.8 µM in the test with SW-620 colon; over 100 µM in the test on TK-10 renal. Besides, the TGI with U251 CNS and in the test on UO-31 renal was over 100 µM in each case.
On to `COc1cc(Cc2nccc3cc(OC)c(OC)cc23)c(N=NN(C)C)cc1OC`, for which the TGI is 33.8 µM in the test with COLO 205 colon; over 100 µM in the test on K-562 leukemia; 47.3 µM in the test on MDA-MB-435; 40.9 µM with OVCAR-5 ovarian; 37.9 µM in the test with SW-620 colon; 44.1 µM with TK-10 renal. Besides, the TGI with U251 CNS was 72 µM; in the test with UO-31 renal it was 44.8 µM.
Turning to `C=C1C2C[C@@H]3O[C@H]4C[C@H]5O[C@@]6(C[C@@H]7O[C@]8(C[C@H](C)[C@@H]9O[C@@H]%10CC(CO)O[C@@H]%10C[C@@H]9O8)C[C@H](C)[C@@H]7O6)C[C@H]5O[C@H]4[C@H](C)[C@H]3OC(=O)C[C@H]3CC[C@@H]4OC5[C@H]6O[C@]7(CC[C@H]8CC(=C)[C@H](CC[C@@H](C[C@H]1C)O2)O8)CC6O[C@@H]5[C@@H](O7)[C@H]4O3` (stereo not given in full), the TGI in the test on COLO 205 colon is 0.000322 µM; with K-562 leukemia, over 1 µM; with MDA-MB-435, under 0.0001 µM; in the test with OVCAR-5 ovarian it was over 1 µM; in the test on SW-620 colon it was over 1 µM; in the test with TK-10 renal, over 1 µM. The TGI in the test on U251 CNS and in the test with UO-31 renal was over 1 µM in each case.
Regarding `N#Cc1c(N)nc(Sc2ccccc2N)c(C#N)c1-c1ccc(Cl)cc1`, the TGI was over 100 µM in the test on COLO 205 colon; over 42 µM in the test on K-562 leukemia; 37.5 µM in the test with MDA-MB-435; over 87.3 µM in the test on OVCAR-5 ovarian; over 100 µM with SW-620 colon; over 48.5 µM with TK-10 renal. Further, the TGI was 24.5 µM in the test on U251 CNS and 9.64 µM in the test on UO-31 renal.
As for `Cc1nc2c(=O)n(C)ncc2[nH]1`, the TGI in the test with COLO 205 colon, in the test with K-562 leukemia, with MDA-MB-435, in the test with OVCAR-5 ovarian, in the test on SW-620 colon and with TK-10 renal was over 100 µM each time. Besides, the TGI in the test on U251 CNS and in the test on UO-31 renal was over 100 µM throughout.
As for `CC1(C)OCC=CCO1`, the TGI in the test on COLO 205 colon, with K-562 leukemia, with MDA-MB-435, in the test on OVCAR-5 ovarian, in the test with SW-620 colon and in the test with TK-10 renal was over 100 µM each time. Further, the TGI in the test on U251 CNS and in the test on UO-31 renal was over 100 µM each time.
For the compound `CCC(C#N)NCc1cccc(CNC(C#N)CC)c1` (stereo not given), the TGI in the test with COLO 205 colon is over 100 µM; in the test on K-562 leukemia, over 100 µM; in the test with MDA-MB-435 it was over 100 µM; in the test with OVCAR-5 ovarian it was 34.2 µM; with SW-620 colon, over 100 µM; in the test with TK-10 renal, over 100 µM. Also, the TGI with U251 CNS and in the test with UO-31 renal was over 100 µM throughout.
As to `COc1ccc(C(=O)/C=C/c2cc(O)c(O)c(F)c2F)c(OC)c1`, the TGI was 53.1 µM in the test on COLO 205 colon; over 100 µM with K-562 leukemia; 82.9 µM with MDA-MB-435; 95.7 µM with OVCAR-5 ovarian; over 100 µM with SW-620 colon; 88 µM in the test on TK-10 renal. The values for the TGI with U251 CNS and with UO-31 renal were 32.1 µM and over 100 µM, respectively.
